Patent US20250360235A1, “RADI[…] AND METHOD FOR RADIOLABELLING” (Telix Innovations SA, priority 2024, published 2025)

Assay: Radiochemical purity by iTLC over time after radiolabelling
Format: physicochemical
Method: Table 1 to Table 5 show the results of various radiolabelling experiments on radiochemical purity and the chelation yield. The radiolabelling experiments in the tables are carried out as described in: • Example 1 for when the gallium-68 source is GE Liquid target generator and EZAG GalliaPharm generator; • Example 2 for when the gallium-68 source is IRE Galli Eo generator; • Example 3 for when the gallium-68 source is GE solid target generator;
However, the experiments were carried out with the amount of ascorbic acid as indicated in the Tables 1 to 5, and the activity as indicated in the Tables 1 to 5. Radiochemical purities were measured at various times (T0, T1, T4, T6) after the radiolabelled experiments have been conducted.
The kits of Example 1, Example 2 or Example 3, with amounts of ascorbic acid as set out in Table 7 were used in the experiments for the ascorbic acid bracketing matrix. Three strengths of [^68Ga]Ga-PSMA-11 will be tested, i.e. 50 mCi/ml, 7 mCi/ml and 1 mCi/ml. Radiochemical purity was determined at different time points (TO, T1, T4 or T6), as set out in Table 7.

[1] = validation batches, 25 mg ascorbic acid, 51.6-62.7 mCi, 4.56-5.88 mCi/mL, IRE Galli Eo, average of 3, T0
[2] = validation batches, 25 mg ascorbic acid, 51.6-62.7 mCi, 4.56-5.88 mCi/mL, IRE Galli Eo, average of 3, T4 (4 h)
[3] = validation batches, 25 mg ascorbic acid, 51.6-62.7 mCi, 4.56-5.88 mCi/mL, IRE Galli Eo, n=3, T0
[4] = validation batches, 25 mg ascorbic acid, 51.6-62.7 mCi, 4.56-5.88 mCi/mL, IRE Galli Eo, n=3, T4 (4 h)
[5] = validation batches, 25 mg ascorbic acid, 53.3-74.4 mCi, 5.03-6.92 mCi/mL, GE Liquid target, average of 3, T0
[6] = validation batches, 25 mg ascorbic acid, 53.3-74.4 mCi, 5.03-6.92 mCi/mL, GE Liquid target, average of 3, T4 (4 h)
[7] = validation batches, 25 mg ascorbic acid, 53.3-74.4 mCi, 5.03-6.92 mCi/mL, GE Liquid target, n=3, T0
[8] = validation batches, 25 mg ascorbic acid, 53.3-74.4 mCi, 5.03-6.92 mCi/mL, GE Liquid target, n=3, T4 (4 h)
[9] = validation batches, 25 mg ascorbic acid, 65.0-66.4 mCi, 5.74-6.15 mCi/mL, EZAG GalliaPharm, average of 3, T0
[10] = validation batches, 25 mg ascorbic acid, 65.0-66.4 mCi, 5.74-6.15 mCi/mL, EZAG GalliaPharm, average of 3, T4 (4 h)
[11] = validation batches, 25 mg ascorbic acid, 65.0-66.4 mCi, 5.74-6.15 mCi/mL, EZAG GalliaPharm, n=3, T0
[12] = validation batches, 25 mg ascorbic acid, 65.0-66.4 mCi, 5.74-6.15 mCi/mL, EZAG GalliaPharm, n=3, T4 (4 h)
[13] = validation batches, 25 mg ascorbic acid, 537-551 mCi, 50.2-51.6 mCi/mL, GE Solid Target, average of 3, T0
[14] = validation batches, 25 mg ascorbic acid, 537-551 mCi, 50.2-51.6 mCi/mL, GE Solid Target, average of 3, T6 (6 h)
[15] = validation batches, 25 mg ascorbic acid, 537-551 mCi, 50.2-51.6 mCi/mL, GE Solid Target, n=3, T0
[16] = validation batches, 25 mg ascorbic acid, 537-551 mCi, 50.2-51.6 mCi/mL, GE Solid Target, n=3, T6 (6 h)
[17] = validation batches, 25 mg ascorbic acid, 555-564 mCi, 51.1-52.7 mCi/mL, ARTMS Solid Target, average of 3, T0
[18] = validation batches, 25 mg ascorbic acid, 555-564 mCi, 51.1-52.7 mCi/mL, ARTMS Solid Target, average of 3, T6 (6 h)
[19] = validation batches, 25 mg ascorbic acid, 555-564 mCi, 51.1-52.7 mCi/mL, ARTMS Solid Target, n=3, T0
[20] = validation batches, 25 mg ascorbic acid, 555-564 mCi, 51.1-52.7 mCi/mL, ARTMS Solid Target, n=3, T6 (6 h)

SMILES: O=C([O-])CN(CCN(CC(=O)[O-])Cc1cc(CCC(=O)NCCCCCC(=O)NCCCC[C@H](NC(=O)N[C@@H](CCC(=O)O)C(=O)O)C(=O)O)ccc1[O-])Cc1cc(CCC(=O)O)ccc1[O-].[68Ga+3].[OH3+] [[^68Ga]PSMA-11, gallium-68 radiolabelled Glu-urea-Lys-HBED-CC (gozetotide or PSMA-11)]
- Radiochemical Purity (iTLC) Ga-68 PSMA-11 (%) (bracketing ~50 mCi/mL, 31.25 mg ascorbic acid, 500-544 mCi, 48.1-51.7 mCi/mL, GE Solid Target, average of 2, T6 (6 h)): 99%
- Radiochemical Purity (iTLC) Free and Colloidal Ga-68 (%) [1]: 0%
- Radiochemical Purity (iTLC) Ga-68 PSMA-11 (%) [1]: 100%
- Radiochemical Purity (iTLC) Free and Colloidal Ga-68 (%) [2]: 1%
- Radiochemical Purity (iTLC) Ga-68 PSMA-11 (%) [2]: 99%
- Radiochemical Purity (iTLC) Free and Colloidal Ga-68 (%) [3]: C (C = all results conform to specifications)
- Radiochemical Purity (iTLC) Ga-68 PSMA-11 (%) [3]: C (C = all results conform to specifications)
- Radiochemical Purity (iTLC) Free and Colloidal Ga-68 (%) [4]: C (C = all results conform to specifications)
- Radiochemical Purity (iTLC) Ga-68 PSMA-11 (%) [4]: C (C = all results conform to specifications)
- Radiochemical Purity (iTLC) Free and Colloidal Ga-68 (%) [5]: 1%
- Radiochemical Purity (iTLC) Ga-68 PSMA-11 (%) [5]: 99%
- Radiochemical Purity (iTLC) Free and Colloidal Ga-68 (%) [6]: 0%
- Radiochemical Purity (iTLC) Ga-68 PSMA-11 (%) [6]: 100%
- Radiochemical Purity (iTLC) Free and Colloidal Ga-68 (%) [7]: C (C = all results conform to specifications)
- Radiochemical Purity (iTLC) Ga-68 PSMA-11 (%) [7]: C (C = all results conform to specifications)
- Radiochemical Purity (iTLC) Free and Colloidal Ga-68 (%) [8]: C (C = all results conform to specifications)
- Radiochemical Purity (iTLC) Ga-68 PSMA-11 (%) [8]: C (C = all results conform to specifications)
- Radiochemical Purity (iTLC) Free and Colloidal Ga-68 (%) [9]: 0%
- Radiochemical Purity (iTLC) Ga-68 PSMA-11 (%) [9]: 100%
- Radiochemical Purity (iTLC) Free and Colloidal Ga-68 (%) [10]: 2%
- Radiochemical Purity (iTLC) Ga-68 PSMA-11 (%) [10]: 98%
- Radiochemical Purity (iTLC) Free and Colloidal Ga-68 (%) [11]: C (C = all results conform to specifications)
- Radiochemical Purity (iTLC) Ga-68 PSMA-11 (%) [11]: C (C = all results conform to specifications)
- Radiochemical Purity (iTLC) Free and Colloidal Ga-68 (%) [12]: C (C = all results conform to specifications)
- Radiochemical Purity (iTLC) Ga-68 PSMA-11 (%) [12]: C (C = all results conform to specifications)
- Radiochemical Purity (iTLC) Free and Colloidal Ga-68 [13]: 0%
- Radiochemical Purity (iTLC) Ga-68 PSMA-11 [13]: 100%
- Radiochemical Purity (iTLC) Free and Colloidal Ga-68 [14]: 1%
- Radiochemical Purity (iTLC) Ga-68 PSMA-11 [14]: 99%
- Radiochemical Purity (iTLC) Free and Colloidal Ga-68 [15]: C (C = all results conform to specifications)
- Radiochemical Purity (iTLC) Ga-68 PSMA-11 [15]: C (C = all results conform to specifications)
- Radiochemical Purity (iTLC) Free and Colloidal Ga-68 [16]: C (C = all results conform to specifications)
- Radiochemical Purity (iTLC) Ga-68 PSMA-11 [16]: C (C = all results conform to specifications)
- Radiochemical Purity (iTLC) Free and Colloidal Ga-68 [17]: 1%
- Radiochemical Purity (iTLC) Ga-68 PSMA-11 [17]: 99%
- Radiochemical Purity (iTLC) Free and Colloidal Ga-68 [18]: 0%
- Radiochemical Purity (iTLC) Ga-68 PSMA-11 [18]: 100%
- Radiochemical Purity (iTLC) Free and Colloidal Ga-68 [19]: C (C = all results conform to specifications)
- Radiochemical Purity (iTLC) Ga-68 PSMA-11 [19]: C (C = all results conform to specifications)
- Radiochemical Purity (iTLC) Free and Colloidal Ga-68 [20]: C (C = all results conform to specifications)
- Radiochemical Purity (iTLC) Ga-68 PSMA-11 [20]: C (C = all results conform to specifications)
